Assay results from PMC7765952, “N-(Hydroxyalkyl) Derivatives of tris(1H-indol-3-yl)methylium Salts as Promising Antibacterial Agents: Synthesis and Biological Evaluation” (Pharmaceuticals, 2020).
Converted amounts (≈) assume the structure as drawn. Where two headings read alike, the source gives them in different places.

How the values were obtained:
K. pneumoniae ATCC 13883 = assay: MIC by microdilution, K. pneumoniae ATCC 13883; type: cell-based; settings: Klebsiella pneumoniae, ATCC13883
Experimental: (§1) Compounds were tested against Gram-positive and Gram-negative bacteria, including sensitive or drug resistant strains from American Type Culture Collection (ATCC), as well as resistant clinical isolates from the culture collection of the Laboratory for Control of Hospital Infections (Sechenov University, Moscow, Russia). Collection cultures of Gram-positive bacteria: Staphylococcus aureus ATCC 25923, Staphylococcus aureus ATCC 3798, Staphylococcus aureus ATCC 700,699 and clinical isolates of Gram-positive bacteria: Staphylococcus aureus 5, Staphylococcus aureus 10, Staphylococcus aureus 100 KS, Staphylococcus epidermidis 533, Enterococcus faecium 569 and collection cultures of Gram-negative bacteria: Escherichia coli ATCC 25922, Klebsiella pneumoniae ATCC 13883, Salmonella cholerasuis ATCC 14,028 were used.
(§2) For the cultivation of the strains, various nutrient media were used: Trypticase Soy Agar BBL for Staphylococcus sp., E. coli, K. pneumoniae, S. cholerasuis and Columbia Agar Base BBL for the cultivation of Enterococcus sp. Cultures grown on appropriate nutrient media at 35 °C for 1 day were used to set up experiments. For determination of the antibacterial action Mueller-Hinton (Acumedia, Baltimore, MD, USA) liquid medium was used. The minimum inhibitory concentrations (MIC) were determined by the microdilution method in 96 well sterile plates in a cation-adjusted Müller-Hinton medium in accordance with the requirements of the Institute of Clinical and Laboratory Standards (CLSI/NCCLS). MIC was defined as the minimum drug concentration that completely prevents the growth of the test organism.

S. aureus ATCC 25923 = assay: MIC by microdilution, S. aureus ATCC 25923; type: cell-based; settings: Staphylococcus aureus, ATCC25923
Experimental: as §1, §2

[1] = Determination of lipophilicity, LogPow by HPLC method; type: physicochemical; settings: experimental, pH 7.4
Source text: We used the partition coefficient as an indicator of lipophilicity. The partition coefficient (P) is defined as the ratio of the equilibrium solute concentrations in a two-phase system of immiscible solvents. The most common in practice is the octanol-water (Pow) system. The partition coefficient is usually represented as a decimal logarithm (LogPow). It can be measured in several ways. A most advanced, accurate, and less time-consuming is the HPLC method for determining Pow using high-performance liquid chromatography. HPLC is performed on an analytical column with a solid phase containing long hydrocarbon chains chemically bound to silica gel. The retention time on such a column (Rt) is directly related to the partition coefficient Pow. The most informative in our case was the partition coefficient at a physiological pH value of 7.4. It was at this pH that the main biological experiments with the studied substances were carried out, namely tests of antimicrobial activity and cytotoxicity. HPLC was performed on a Shimadzu LC-20AD system using Kromasil-100-5-C18 (Akzo-Nobel) column, 4.6 × 250 mm, 20 °C temperature, UV detection, mobile phase A—0.2% HCOONH4), mobile phase B-MeCN, (pH 7.4), fl-1 mL/min., loop 20 mkl. After calibration using substances with a known LogPow, it is possible to recalculate Rt to LogPow. For calibration, we used aniline (LogPow 0.9), p-chloroaniline (LogPow 1.8), diphenylamine (LogPow 3.4), triphenylamine (LogPow 5.7).

S. epidermidis 533 = assay: MIC by microdilution, S. epidermidis 533; type: cell-based; settings: Staphylococcus epidermidis
Experimental: as §1, §2

P. aeruginosa ATCC 27853 = assay: MIC by microdilution, P. aeruginosa ATCC 27853; type: cell-based; settings: Pseudomonas aeruginosa, ATCC27853
Experimental: as §2

S. aureus ATCC 3798 = assay: MIC by microdilution, S. aureus ATCC 3798; type: cell-based; settings: Staphylococcus aureus, ATCC3798
Experimental: as §1, §2

E. faecium 569 = assay: MIC by microdilution, E. faecium 569; type: cell-based, Enterococcus faecium
Experimental: as §1, §2

S. aureus 100 KC = assay: MIC by microdilution, S. aureus 100 KC; type: cell-based; settings: Staphylococcus aureus
Experimental: as §1, §2

S. aureus 5 = assay: MIC by microdilution, S. aureus 5; type: cell-based; settings: Staphylococcus aureus
Experimental: as §1, §2

S. aureus 10 = assay: MIC by microdilution, S. aureus 10; type: cell-based; settings: Staphylococcus aureus
Experimental: as §1, §2

E. coli ATCC 25922 = assay: MIC by microdilution, E. coli ATCC 25922; type: cell-based, Escherichia coli
Experimental: as §1, §2

[2] = tested on: S. cholerasuis ATCC 14028; assay: MIC by microdilution, S. cholerasuis ATCC 14028; type: cell-based; settings: Salmonella, ATCC14028
Experimental: as §1, §2

S. aureus ATCC 700699 = assay: MIC by microdilution, S. aureus ATCC 700699; type: cell-based, Staphylococcus aureus
Experimental: as §1, §2

[3] = substances with a known LogPow used for HPLC calibration; cited from earlier work
[4] = tested on: Gram-positive and Gram-negative bacteria; assay: Antibacterial activity in vitro, strain panel in general; type: cell-based; settings: general statement over the strain panel
Experimental: as §1, §2

[5] = K. pneumoniae ATCC 13883, read-out: MIC
[6] = S. aureus ATCC 25923, sensitive to all antibiotics, read-out: MIC
[7] = S. epidermidis 533, resistant to gentamicin, read-out: MIC
[8] = P. aeruginosa ATCC 27853, read-out: MIC
[9] = S. aureus ATCC 3798, multiresistant incl. ciprofloxacin, levofloxacin, read-out: MIC
[10] = Enterococcus faecium, E. faecium 569, resistant to cefuroxime, clindamycin, gentamycin, vancomycin, doxycycline, read-out: MIC
[11] = S. aureus 100 KC, methicillin resistant (MRSA) clinical isolate, read-out: MIC
[12] = S. aureus 5, methicillin resistant (MRSA) clinical isolate, read-out: MIC
[13] = clinical isolate S. aureus 10, sensitive to all antibiotics, read-out: MIC
[14] = Escherichia coli, ATCC25922, E. coli ATCC 25922, read-out: MIC
[15] = S. cholerasuis ATCC 14028, read-out: MIC
[16] = Staphylococcus aureus, ATCC700699, S. aureus ATCC 700699, resistant to levofloxacin, read-out: MIC
[17] = S. aureus ATCC 700699, resistant to levofloxacin

Row | SMILES | MIC (K. pneumoniae ATCC 13883; [5]) [µg/mL] | MIC (S. aureus ATCC 25923; [6]) [µg/mL] | LogPow [1] | MIC (S. epidermidis 533; [7]) [µg/mL] | MIC (P. aeruginosa ATCC 27853; [8]) [µg/mL] | MIC (S. aureus ATCC 3798; [9]) [µg/mL] | MIC (E. faecium 569; [10]) [µg/mL] | MIC (S. aureus 100 KC; [11]) [µg/mL] | MIC (S. aureus 5; [12]) [µg/mL] | MIC (S. aureus 10; [13]) [µg/mL] | MIC (E. coli ATCC 25922; [14]) [µg/mL] | MIC [2, 15] [µg/mL] | MIC (S. aureus ATCC 700699; [16]) [µg/mL] | LogPow of calibration substances [3] | other results
1 | OCCn1cc([C+](c2cn(CCO)c3ccccc23)c2cn(CCO)c3ccccc23)c2ccccc21.[Cl-] [8a, tris(1-(2-Hydroxyethyl)-1H-indol-3-yl)methylium chloride] | > 64 | 32 | 1.15 | 32 | > 64 | 32 | > 64 | 64 | 64 | 16 | 16 | > 64 | 32 | – | –
2 | c1ccc(Nc2ccccc2)cc1 [diphenylamine] | – | – | – | – | – | – | – | – | – | – | – | – | – | 3.4 | –
3 | OCCCCCn1cc([C+](c2cn(CCCCCO)c3ccccc23)c2cn(CCCCCO)c3ccccc23)c2ccccc21.[Cl-] [8d, tris(1-(5-Hydroxypentyl)-1H-indol-3-yl)methylium chloride] | 2 | 2 | 4 | 1 | > 64 | 2 | 8 | 2 | 4 | 1 | 8 | > 64 | 2 | – | MIC (antibacterial activity, strains not specified) [4]: highly active against Gram-positive bacteria; MIC (E. coli ATCC 25922; E. coli ATCC 25922): moderate level of activity; MIC (S. aureus ATCC 700699; [17]): active
4 | OCCCn1cc([C+](c2cn(CCCO)c3ccccc23)c2cn(CCCO)c3ccccc23)c2ccccc21.[Cl-] [8b, tris(1-(3-Hydroxypropyl)-1H-indol-3-yl)methylium chloride] | > 64 | 32 | 1.2 | 32 | > 64 | 16 | 32 | 16 | 16 | 8 | > 64 | > 64 | > 64 | – | –
5 | C[C@H]1COc2c(N3CCN(C)CC3)c(F)cc3c(=O)c(C(=O)O)cn1c23 [Lf, levofloxacin, reference compound] | 0.25 (≈ 0.692 µM) | 0.25 (≈ 0.692 µM) | – | 0.5 (≈ 1.38 µM) | 1 (≈ 2.77 µM) | 32 (≈ 88.6 µM) | 1 (≈ 2.77 µM) | 32 (≈ 88.6 µM) | 0.25 (≈ 0.692 µM) | 0.13 (≈ 0.36 µM) | 0.06 (≈ 0.166 µM) | 0.13 (≈ 0.36 µM) | 16 (≈ 44.3 µM) | – | –
6 | c1ccc(N(c2ccccc2)c2ccccc2)cc1 [triphenylamine] | – | – | – | – | – | – | – | – | – | – | – | – | – | 5.7 | –
7 | CCN(CC)c1ccc(C(=C2C=CC(=[N+](CC)CC)C=C2)c2ccccc2)cc1 [BG, brilliant green, reference compound] | – | – | – | – | – | – | – | – | – | – | – | – | – | – | MIC (K. pneumoniae ATCC 13883): 8 µg/mL; MIC (S. aureus ATCC 25923): 0.06 µg/mL; MIC (S. epidermidis 533; 533): 0.06 µg/mL; MIC (P. aeruginosa ATCC 27853): > 64 µg/mL; MIC (S. aureus ATCC 3798): 0.06 µg/mL; MIC (E. faecium 569; Enterococcus faecium, 569): 0.25 µg/mL; MIC (S. aureus 100 KC; MRSA): 0.06 µg/mL; MIC (S. aureus 5; MRSA): 0.06 µg/mL; MIC (S. aureus 10; 10): 0.13 µg/mL; MIC (E. coli ATCC 25922; Escherichia coli, ATCC25922): 4 µg/mL; MIC [2]: 16 µg/mL; MIC (S. aureus ATCC 700699; Staphylococcus aureus, ATCC700699): 1 µg/mL
8 | Nc1ccccc1 [aniline] | – | – | – | – | – | – | – | – | – | – | – | – | – | 0.9 | –
9 | OCCCCn1cc([C+](c2cn(CCCCO)c3ccccc23)c2cn(CCCCO)c3ccccc23)c2ccccc21.[Cl-] [8c, tris(1-(4-Hydroxybutyl)-1H-indol-3-yl)methylium chloride] | 8 | 16 | 2.9 | 16 | > 64 | 16 | > 64 | 16 | 8 | 8 | 32 | > 64 | 8 | – | –
10 | Nc1ccc(Cl)cc1 [p-chloroaniline] | – | – | – | – | – | – | – | – | – | – | – | – | – | 1.8 | –
11 | OCCCCCCn1cc([C+](c2cn(CCCCCCO)c3ccccc23)c2cn(CCCCCCO)c3ccccc23)c2ccccc21.[Cl-] [8e, tris(1-(6-hydroxyhexyl)-1H-indol-3-yl)methylium chloride] | 8 | 0.5 | 5.4 | 0.5 | > 64 | 0.5 | > 64 | 0.5 | 0.5 | 0.5 | 8 | > 64 | 0.5 | – | MIC (E. faecium 569; E. faecium 569, resistant to cefuroxime, clindamycin, gentamycin, vancomycin, doxycycline): >64 µg/mL; MIC (antibacterial activity, strains not specified) [4]: highly active against Gram-positive bacteria; MIC ([4]; read-out: MIC (antibacterial activity, strains not specified)): 0.5 µg/mL; MIC (E. coli ATCC 25922; E. coli ATCC 25922): moderate level of activity; MIC (S. aureus ATCC 700699; [17]): active
